The source of these data is US7763601B2, “Prevention and treatment of obesity” (N-Gene Research Laboratories, Inc., priority 2006, dated 2010).

For assay [1], the system named is female Wistar rats. In words: Body weight gain induced by olanzapine in rats, 28 days. Particulars: for Body weight (average in the group): day 28, control 255 g. Format: in vivo, rat. The protocol:
Groups of female Wistar rats were treated with vehicle (control group) and the agents to be tested for 28 days. Each group consisted of 6 animals fed with normal laboratory chow and tap water ad libitum. The agents to be tested were administered twice daily, at 8 h and 18 h, perorally. The antipsychotic olanzapine was administered in a dose of 1 mg/kg to induce body weight gain.

Another assay concerns female NMRI mice. In words: Body weight gain induced by olanzapine or clozapine in mice, 15 days. Format: in vivo, mouse. Particulars: agent alone p.o. for 15 days (olanzapine 0.5, clozapine 1, BGP-15 10 mg/kg); between first and 15th day; control 2.98 g. The protocol: Groups of female NMRI mice were treated with vehicle (control group) and the agents to be tested for 15 days, perorally. Each group consisted of 10 animals fed with normal laboratory chow and tap water ad libitum. Treatments were performed between 5 and 6 pm, shortly before the dark phase, the primary feeding period of the day. Olanzapine was administered in a dose of 0.5 mg/kg, while clozapine was administered in a dose of 1 mg/kg to induce body weight gain.

In assay [2] the test system is female Wistar rats. Briefly: Body weight gain induced by risperidone in rats, 21 days. Format: in vivo, rat. To be noted: for Body weight gain: day 21, control 27 g. The method, then: The experiments were carried out in eight-week-old female Wistar rats. Each test group consisted of 10 animals fed with normal laboratory chow and tap water ad libitum. The animals were treated with vehicle (control group) and the compounds to be tested for 21 days. In this experimental system, the antipsychotic risperidone was injected subcutaneously once daily in doses of 0.005 and 0.05 mg/kg, respectively to induce body weight gain.

The mark [3] stands for this setting: agent alone, p.o. twice daily for 28 days (olanzapine 1, BGP-15 10, metformin 100, rosiglitazone 3 mg/kg), starting weight 171 g.
Where [4] appears, read: agent together with olanzapine 1 mg/kg, p.o. twice daily for 28 days (BGP-15 10, metformin 100, rosiglitazone 3 mg/kg), olanzapine alone 330 g.

For `CN(CCOc1ccc(CC2SC(=O)NC2=O)cc1)c1ccccn1` (stereo not shown) [Rosiglitazone, rosiglitazone], the “Body weight (average in the group)” value in the assay with female Wistar rats [1] (setting [3]) is 284 g; in the assay with female Wistar rats [1] (setting [4]), 359 g.

On to `Cc1cc2c(s1)Nc1ccccc1N=C2N1CCN(C)CC1` [Olanzapine, 2-methyl-4-(4-methyl-1-piperazinyl)-10H-thieno[2,3-b][1,5]-benzodiazepine], for which, in the assay with female Wistar rats [1] (agent alone, 28 days), the “effect on average weight relative to the control group” value is “high average weight relative to the control group”. Further, in the assay on female Wistar rats [1] (setting [3]), the “Body weight (average in the group)” value is reported as 330 g. The “Body weight gain (average in the group)” value with female NMRI mice turned out to be 3.5 g.

For the molecule `CN1CCN(C2=Nc3cc(Cl)ccc3Nc3ccccc32)CC1` [Clozapine, 8-chloro-11-(4-methyl-1-piperazinyl)-5H-dibenzo[b,e][1,4]diazepine], the “Body weight gain (average in the group)” value with female NMRI mice is 4.11 g.

In the case of `Cc1nc2n(c(=O)c1CCN1CCC(c3noc4cc(F)ccc34)CC1)CCCC2` [Risperidone, risperidone], the “effect on body weight gain relative to the control group” value in the assay with female Wistar rats [2] (agent alone, 21 days) is listed as “increased body weight gain relative to the control group”. For the same molecule, the values for the Body weight gain in the assay on female Wistar rats [2] (risperidone alone 0.005 mg/kg s.c. once daily) and in the assay on female Wistar rats [2] (risperidone alone 0.05 mg/kg s.c. once daily) were 39.7 g and 41 g, respectively.

In the case of `CN(C)C(=N)N=C(N)N` [Metformin, metformin], the “effect on average weight relative to the control group” value in the assay on female Wistar rats [1] (agent alone, 28 days) is given as “somewhat higher average weight relative to the control group”. The “Body weight (average in the group)” value is 266 g with female Wistar rats [1] (setting [3]) and 331 g with female Wistar rats [1] (setting [4]). Besides, the “effect on the weight gain induced by olanzapine” value in the assay with female Wistar rats [1] (agent together with olanzapine 1 mg/kg, 28 days) is recorded as “did not reduce”.
